For one test, the system named is HUVECs. In words: GFP transfection of confluent HUVECs in 12% serum, FACS. The format is cell-based, Human. The settings on record: 40 w/w C32; N/P 1.55. From the text: GFP Transfections. Fluorescent Activated Cell Sorting (FACS) and enhanced green fluorescent protein (EGFP) DNA were utilized to determine the efficacy of nanoparticle gene delivery. FACS data was interpreted by using a two-dimensional contour plot that compares the ratio of EGFP channel fluorescence (x-axis) to yellow channel autofluorescence (y-axis) for greater accuracy than a one-dimensional histogram as previously described. […] These experiments took place under conditions generally seen as difficult for in vitro transfection, but important for an in vivo cardiovascular application: fully confluent, and therefore non-dividing, primary cells in the presence of a high concentration of serum proteins.
GFP Transfections. Non-viral nanoparticle transfections were performed on confluent HUVECs in the presence of 12% serum. HUVECs were seeded (75,000 cells/well) into clear 24-well plates (Becton Dickinson, Franklin Lakes, N.J., USA) at 24 hours prior to transfection to allow for growth to confluence. Nanoparticles were constructed as previously mentioned using a 6 μg DNA basis per well. Then 150 μL of each polymer/DNA/peptide nanoparticle solution was added to 1.00 mL of FBS supplemented EGM-2 media (12% Serum). […]
Flow Cytometry. GFP expression was measured using Fluorescence Activated Cell Sorting (FACS) on a FACSCalibur (Becton Dickinson, San Jose, Calif., USA). […]

The test system of another test is LS174T cells. As to the kind of experiment: Cytotoxicity of gelonin coated C32/DNA particles. Format: cell-based. The settings on record: single treatment; 70 w/w C32, 600 ng DNA, 100 nM gelonin; colon cancer cells. The method, then: FIG. 14. Cytotoxity of composition on cells using a cytotoxic drug itself as the coating. 70 w/w C32 particles with 600 ng DNA were coated with 100 nM gelonin (a 28 kD protein) to test the cytotoxicity of the compostion in LS174T cells.
Unformulated gelonin is unable to reach the cytoplasm unassisted. In constrast, the gelonin coated nanoparticles are able to be effectively internalized into the cell and released from the endosomal compartment into the cytoplasm, where they are active.

As for EEEEEEEEEEEEGGGGGGGRDGS [E12-RDG], the “transfection of HUVECs (FACS gating of GFP)” value with HUVECs was “do not”.

With gelonin, the cells killed result in the test with LS174T cells is given as “unable to kill any of the cells”.
